According to patent US10695427B2, “Shape memory particles for biomedical uses” (The Johns Hopkins University, priority 2015, dated 2020):

Tests used:
MDA-MB-231 cells [1] = assay: Paclitaxel/digoxin treatment of TNBC orthografts (tumor volume, Aldefluor assay, RT-qPCR); assay type: in vivo, mice; settings: tumors harvested on day 12; for percentage of ALDH+ cells (Aldefluor assay): compared with saline treatment
Description: MDA-MB-231 cells were implanted into the mammary fat pad of female severe combined immunodeficiency (Scid) mice. Mice were randomized to four groups, which were treated with: saline (control, C); digoxin (D); paclitaxel (P); or paclitaxel and digoxin (P/D). […] Tumors were harvested on day 12 for Aldefluor assay to determine the percentage of aldehyde dehydrogenase-expressing (ALDH^+) BCSCs (FIG. 17B) and RT-qPCR assays to quantify the expression of mRNAs encoding interleukin (IL) 8, IL-6, and the multidrug drug resistance protein MDR1 (FIG. 17C).

MDA-MB-231 cells [2] = assay: Gemcitabine/digoxin combination therapy, tumor relapse; assay type: in vivo, mice
Description: MDA-MB-231 cells were implanted into the mammary fat pad of female Scid mice. When a tumor was palpable (day 1), the mice were randomized to three groups, which were treated with intraperitoneal injections of: saline, gemcitabine [20 mg/kg on days 5, 10, 15, 20, and 25 (arrows)], or gemcitabine and digoxin (2 mg/kg on days 1-25). Tumor volumes were determined every 2-3 d and mean±SEM (n=3) are shown.
To examine the effect of HIF inhibition on tumor relapse, MDA-MB-231 cells were implanted into the mammary fat pad of Scid mice. When the tumor became palpable, the mice were randomized to receive intraperitoneal injections of saline, gemcitabine (20 mg/kg on days 5, 10, 15, 20, and 25), or the combination of digoxin (2 mg/kg on days 1-25) and gemcitabine.

## C[C@H]1O[C@@H](O[C@H]2[C@@H](O)C[C@H](O[C@H]3[C@@H](O)C[C@H](O[C@H]4CC[C@@]5(C)[C@H](CC[C@@H]6[C@@H]5C[C@@H](O)[C@]5(C)[C@@H](C7=CC(=O)OC7)CC[C@]65O)C4)O[C@@H]3C)O[C@@H]2C)C[C@H](O)[C@@H]1O [digoxin]
MDA-MB-231 cells [1]
  percentage of ALDH+ cells (Aldefluor assay): significantly decreased

## Nc1ccn([C@@H]2O[C@H](CO)[C@@H](O)C2(F)F)c(=O)n1 [gemcitabine]
MDA-MB-231 cells [2]; intraperitoneal, gemcitabine 20 mg/kg days 5, 10, 15, 20, 25, digoxin 2 mg/kg days 1-25, Scid mice
  tumor growth during treatment: markedly reduced tumor growth
MDA-MB-231 cells [2]; up to day 32, 7 days after treatment was discontinued
  tumor growth after treatment was discontinued (relapse): rapid tumor growth resumed

## CC(=O)O[C@H]1C(=O)[C@@]2(C)[C@H]([C@H](OC(=O)c3ccccc3)[C@]3(O)C[C@H](OC(=O)[C@H](O)[C@@H](NC(=O)c4ccccc4)c4ccccc4)C(C)=C1C3(C)C)[C@]1(OC(C)=O)CO[C@@H]1C[C@@H]2O [paclitaxel]
MDA-MB-231 cells [1]; RT-qPCR
  expression of IL-6, IL-8, and MDR1 mRNA: increased
MDA-MB-231 cells [1]
  percentage of ALDH+ cells (Aldefluor assay): significantly increased
